Consider 22 compounds from patent US20230044787A1, “TRICYCLE DIHYDROIMIDAZOPYRIMIDONE DERIVATIVE, PREPARATION METHOD THEREOF, PHARMACEUTICAL COMPOSITION AND USE THEREOF” (priority 2019, published 2023).

For the experiment, the target named is T1, Lp-PLA2 (Homo sapiens, UniProt Q13093).
T1 construct: aliquoted and thawed 40 μL of pooled human plasma was previously added; from tissue; host or cells: pooled human plasma
T1 sequence (Q13093 22-441): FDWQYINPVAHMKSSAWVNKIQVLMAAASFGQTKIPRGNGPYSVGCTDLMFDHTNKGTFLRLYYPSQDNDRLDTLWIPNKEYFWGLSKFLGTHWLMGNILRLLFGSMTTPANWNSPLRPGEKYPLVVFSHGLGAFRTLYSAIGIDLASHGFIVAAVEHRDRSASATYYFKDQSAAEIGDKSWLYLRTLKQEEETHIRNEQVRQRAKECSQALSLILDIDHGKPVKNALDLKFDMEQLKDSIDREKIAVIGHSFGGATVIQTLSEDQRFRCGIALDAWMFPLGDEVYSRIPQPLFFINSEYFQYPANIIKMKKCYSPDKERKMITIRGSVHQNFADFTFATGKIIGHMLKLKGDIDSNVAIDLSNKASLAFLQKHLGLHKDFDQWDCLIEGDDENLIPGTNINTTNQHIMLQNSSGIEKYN
Nature of the experiment: Lipoprotein-associated phospholipase A2 (Lp-PLA2) human plasma assay (Thio-PAF assay). The format is biochemical. Particulars: Lp-PLA2 human plasma assay (Thio-PAF), pooled human plasma, 30-min pre-incubation at room temperature. On the procedure:
Lipoprotein-Associated Phospholipase A2 (Lp-PLA2) Human Plasma Assay
The amount of sulfhydryl groups is continuously determined by the reaction with CPM (7-diethylamino-3-(4′-maleimidophenyl)-4-methylcoumarin), and the CPM is a maleimide of which fluorescence increases after Michael addition of sulfhydryl group. This assay can detect Lp-PLA2 activity in human plasma, as determined by specific inhibition of Lp-PLA2 inhibitors.
Thio-PAF assay was performed as quenched 75 μL assay. Compound source plate was prepared for each compound by preparing 1:3 (by volume) serial dilutions in pure DMSO in a 96-well microplate. The compound on the source plate was diluted 20-fold by transferring 3 μL of the compound from the compound source plate into a 96-well microplate pre-added with 57 μL of assay buffer by Rainin multichannel pipette. The assay buffer described above consisted of 50 mM HEPES, pH 7.4, 150 mM NaCl, 1 mM CHAPS. 1 μL of the 20-fold diluted compound was transferred by Rainin multichannel pipette into a 96-well Greiner 655076 (black) microplate to which aliquoted and thawed 40 μL of pooled human plasma was previously added. The plate was shaken for 20 seconds on a microplate shaker to mix well. After a 30-min pre-incubation at room temperature, 10 μL of substrate solution was added to the 96-well Greiner 655076 (black) microplate by Rainin multichannel pipette, in which the substrate solution contained 2.5 mM 2-thio-PAF [from ethanol stock], 32 μM CPM [from DMSO stock], and 3.2 mM NEM (N-ethylmaleimide) [freshly prepared in DMSO per experiment] in assay buffer consisting of 50 mM HEPES, pH 7.4; 150 mM NaCl; 1 mM CHAPS. After 2 min, the reaction was quenched with […] of 5% trifluoroacetic acid (TFA) in water. The plate was centrifuged at 2000 rpm for 1 minute. The plate was read at ex:380/em:485 using a Biotek Synergy H1 (H1MF) microplate reader. IC50 data, curves and QC analysis were performed using GraphPad Prism 6.0 and Excel.
As usually defined, the IC50 is the concentration that gives 50% inhibition. With `O=c1nc(OCc2ccc(Oc3ccc(C(F)(F)F)nc3)c(F)c2)cc2n1CC13CCC(CC1)N23` [Example 121, 3-((3-fluoro-4-((6-(trifluoromethyl)pyridin-3-yl)oxy)benzyl)oxy)-7,8-dihydro-1H,6H,9H-6,8a-ethanopyrrolo[1′,2′:3,4] imidazo[1,2-c]pyrimidin-1-one], the half-maximal inhibitory concentration (IC50) was 8.6 nM. As for `O=C1N(Cc2ccccc2)[C@@H]2CN3c4cc(OCc5cc(F)c(Oc6ccnc(C(F)(F)F)c6)c(F)c5)nc(=O)n4C[C@]13C2` [Example 131], the IC50 turned out to be 7.9 nM.

On to `O=c1nc(OCc2cc(F)c(Oc3ccnc(C(F)(F)F)c3)c(F)c2)cc2n1CC13CCC(CC1)CN23` [Example 53, 3-((3,5-difluoro-4-((2-(trifluoromethyl)pyridin-4-yl)oxy)benzyl)oxy)-6,7,8,9-tetrahydro-1H,10H-7,9a-ethanopyrido[1′,2′:3,4] imidazo[1,2-c]pyrimidin-1-one], for which the half-inhibitory concentration (IC50) amounted to 14.3 nM. The value for `O=c1nc(OCc2ccccc2F)cc2n1CC13CC(CN21)C3` [Example 44, 3-((2-fluorobenzyl)oxy)-7,8-dihydro-1H,6H,9H-7,8a-methanopyrrolo[1′,2′:3,4] imidazo[1,2-c]pyrimidin-1-one] was 342 nM; that for `O=c1nc(OCc2ccc(Oc3cnc(C(F)(F)F)nc3)c(F)c2)cc2n1CC13CC(CN21)C3` [Example 122, 3-((3-fluoro-4-((2-(trifluoromethyl)pyrimidin-5-yl)oxy)benzyl)oxy)-7,8-dihydro-1H,6H,9H-7,8a-methanopyrrolo[1′,2′:3,4] imidazo[1,2-c]pyrimidin-1-one] was 9.4 nM. The value for `COc1c(N(C)Cc2ccc(F)c(F)c2)nc(=O)n2c1N1C[C@@H]3C[C@]1(CO3)C2` [Example 180] was 87.2 nM; that for `O=c1nc(OCCc2ccc(Oc3ccnc(C(F)(F)F)c3)cc2)cc2n1C[C@]13CO[C@H](CN21)C3` [Example 100, (3S,11aR)-7-(4-(2-(trifluoromethyl)pyridin-4-yloxy)phenethoxy)-3,4-dihydro-1H,9H,11H-3,11a-methanopyrimido[6′-,1′:2,3] imidazo[5,1-c][1,4]oxazin-9-one] was 5.9 nM; that for `COc1c(OCCc2ccc(Oc3ccc(Cl)c(C(F)(F)F)c3)c(F)c2)nc(=O)n2c1N1CC3CC1(C3)C2` [Example 187, 3-(4-(4-chloro-3-(trifluoromethyl)phenoxy)-3-fluorophenethoxy)-4-methoxy-7,8-dihydro-1H,6H,9H-7,8a-methanopyrrolo[1′,2′:3,4] imidazo[1,2-c]pyrimidin-1-one] was 7.8 nM.

On to `O=c1nc(OCc2cc(F)c(Oc3ccc(C(F)(F)F)cc3)c(F)c2)cc2n1C[C@]13CO[C@H](CN21)C3` [Example 144, (3S,11aR)-7-((3,5-difluoro-4-(4-(trifluoromethyl)phenoxy)benzyl)oxy)-3,4-dihydro-1H,9H,11H-3,11a-methanopyrimido[6′1′:2,3] imidazo[5,1-c][1,4]oxazin-9-one], for which the IC50 came to 2.4 nM. Take `O=c1nc(OCCc2ccc(Oc3cccc(C(F)(F)F)c3)cc2)cc2n1CC13CC(CN21)C3` [Example 133, 3-(4-(3-(trifluoromethyl)phenoxy)phenethoxy)-7,8-dihydro-1H,6H,9H-7,8a-methanopyrrolo[1′,2′:3,4] imidazo[1,2-c]pyrimidin-1-one]: the IC50 amounted to 36.6 nM. As for `O=c1nc(OCc2ccc(Oc3ccnc(C(F)(F)F)c3)c(F)c2)cc2n1C[C@@]13C[C@@H](CN21)N(Cc1ccccc1)C3` [Example 178, (3S,11aS)-2-benzyl-7-((3-fluoro-4-((2-(tri-fluoromethyl)pyridin-4-yl)oxy)benzyl)oxy)-1,2,3,4-tetrahydro-9H,11H-3,11a-methano-pyrazino[1′,2′:3,4]imidazo[1,2-c]pyrimidin-9-one], the figure is 6.2 nM; as for `O=c1nc(OCc2cc(F)c(Oc3ccnc(C(F)(F)F)c3)c(F)c2)c(F)c2n1C[C@]13CO[C@H](CN21)C3` [Example 88, (3S,11aR)-7-((3,5-difluoro-4-((2-(trifluoromethyl)pyridin-4-yl)oxy)benzyl)oxy)-6-fluoro-3,4-dihydro-1H,9H,11H-3,11a-methanopyrimido[6′,1′:2,3] imidazo[5,1-c][1,4]oxazin-9-one], 5.2 nM; as for `O=c1nc(OCCc2ccc(F)c(F)c2)cc2n1C[C@]13CO[C@H](CN21)C3` [Example 195, (3S,11aR)-7-(3,4-difluorophenethoxy)-3,4-dihydro-1H,9H,11H-3,11a-methano-pyrimido[6′,1′:2,3]imidazo[5,1-c][l,4]oxazin-9-one], 62.7 nM. For the compound `CC12CCCCN1c1cc(OCc3ccc(Oc4ccc(F)c(C(F)(F)F)c4)nc3)nc(=O)n1C2` (stereo not shown) [Example 69, 3-((6-(4-fluoro-3-(trifluoromethyl)phenoxy)pyridin-3-yl)methoxy)-9a-methyl-6,7,8,9,9a,10-hexahydro-1H-pyrido[1,2′:3,4]imidazo [1,2-c]pyrimidin-1-one], the IC50 came to 325 nM. As to `N#Cc1cc(F)cc(COc2cc3n(c(=O)n2)C[C@]24CO[C@H](CN32)C4)c1` [Example 141, 3-fluoro-5-((((3S,11aR)-9-oxo-3,4-dihydro-1H,9H,11H-3,11a-methanopyrimido[6′,1′:2,3]imidazo[5,1-c][1,4]oxazin-7-yl)oxy)methyl)benzonitrile], the half-maximal inhibitory concentration (IC50) came out at 6.1 nM. As to `O=c1nc(OCc2cc(F)c(Oc3ccnc(C(F)(F)F)c3)c(F)c2)cc2n1CC13CCC(COC1)N23` (stereo not shown) [Example 112, 7-((3,5-difluoro-4-((2-(trifluoromethyl)pyridin-4-yl)oxy)benzyl)oxy)-3,4-dihydro-1H,9H,11H-4,11a-ethanopyrimido[6′,1′:2,3] imidazo[5,1-c][1,4]oxazin-9-one], the IC50 amounted to 5.1 nM. The value for `N#Cc1cc(COc2cc3n(c(=O)n2)CC24CCC(CC2)N34)ccc1Oc1ccc(Cl)c(C(F)(F)F)c1` [Example 50, 5-(((1-oxo-7,8-dihydro-1H,6H,9H-6,8a-ethanopyrrolo[1′,2′:3,4]imidazo[1,2-c]pyrimidin-3-yl)oxy)methyl)-2-(4-chloro-3-(trifluoromethyl)phenoxy) benzonitrile] was 2.7 nM; that for `O=c1nc(OCc2cc(F)c(Oc3ccnc(C(F)F)c3)c(F)c2)cc2n1CC13CC(CN21)C3` [Example 176, 3-((4-((2-(difluoromethyl)pyridin-4-yl)oxy)-3,5-difluorobenzyl)oxy)-7,8-dihydro-1H,6H, 9H-7,8a-methanopyrrolo[1′,2′:3,4]imidazo [1,2-c]pyrimidin-1-one] was 13.9 nM; that for `N#Cc1cc(COc2cc3n(c(=O)n2)C[C@]24CO[C@H](CN32)C4)ccc1Oc1ccnc(C(F)(F)F)c1` [Example 22, 5-((((3S,11aR)-9-oxo-3,4-dihydro-1H,9H,11H-3,11a-methanopyrimido[6′,1′:2,3]imidazo[5,1-c][1,4]oxazin-7-yl)oxy)methyl)-2-((2-(trifluoromethyl)pyridin-4-yl)oxy)benzonitrile] was 3 nM.

Consider `O=c1nc(OCc2cc(F)c(Oc3ccnc(OC(F)(F)F)c3)c(F)c2)cc2n1CC13CC(CN21)C3` [Example 37, 3-((3,5-difluoro-4-((2-(trifluoromethoxy)pyridin-4-yl)oxy)benzyl)oxy)-7,8-dihydro-1H,6H,9H-7,8a-methanopyrrolo[1′,2′:3,4] imidazo[1,2-c]pyrimidin-1-one], for which the 50% inhibitory concentration (IC50) was 5.8 nM. As for `CC12CCCN1c1cc(OCc3ccc(Oc4ccc(C(F)(F)F)cc4)c(C#N)c3)nc(=O)n1C2` (stereo not shown) [Example 60, 5-(((8a-methyl-1-oxo-7,8,8a,9-tetrahydro-1H,6H-pyrrolo[1′,2′:3,4]imidazo [1,2-c]pyrimidin-3-yl)oxy)methyl)-2-(4-(trifluoromethyl)phenoxy) benzonitrile], the figure is 6.6 nM; as for `O=c1nc(OCc2cc(F)c(Oc3ccnc(OC(F)(F)F)c3)c(F)c2)cc2n1C[C@]13CO[C@H](CN21)C3` [Example 5, (3S,11aR)-7-((3,5-difluoro-4-((2-(trifluoromethoxy)pyridin-4-yl)oxy)benzyl)oxy)-3,4-dihydro-1H,9H,11H-3,11a-methanopyrimido[6′,1′:2,3] imidazo[5,1-c][1,4]oxazin-9-one], 4.2 nM.
